# Experiments:
# [1] = system: ASPC-1 tumor-bearing mice; test: Biodistribution of radionuclide labeled complexes in ASPC-1 tumor-bearing mice; type: in vivo, BALB/c nude mice
# Method in brief: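 BALB/c nude mice bore subcutaneous flank xenografts from ~4×10^6 NTSR-1-expressing cells, grown 2-4 weeks to ~0.05-0.50 g. Labeled compound, ~30-50 μCi (30-250 μCi/nmol specific activity) in 0.9% NaCl, was given by tail vein; organs were excised, weighed and γ-counted at various times for % ID and % ID/g.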
# [2] = system: HT-29 tumor-bearing mice; test: Biodistribution of radionuclide labeled complexes in HT-29 tumor-bearing mice; type: in vivo, BALB/c nude mice
# Method: The BALB/c nude mice (Charles River, Beijing) were utilized to establish the xenografted model for biodistribution study. All animal care and experimental procedure were performed by following the animal protocols approved by the ethics committee of China Institute of Radiation Protection.
# Briefly, each mouse was inoculated with approximately 4×10^6 ASPC-1 cells (human pancreatic cancer cell line) or HT-29 cells (human colorectal adenocarcinoma cell line) expressing human NTSR-1 by subcutaneous injection at rear flank. After inoculation, the xenografted tumors were allowed to grow for ˜2-4 weeks till the tumor weight reached to about 0.05 to 0.50 g (0.20 g in average).
# Biodistribution studies were performed by administrating the radionuclide labeled test compound at a dose of ˜30-50 μCi (100 μL in 0.9% NaCl, ˜1.11-1.85 MBq, with specific activity 30-250 μCi/nmol) to each animal through tail vein injection.
# At different time points after the administration, the mice treated with each compound were euthanized. The tissues and organs of the animals in each group were collected, excised, weighed, and analyzed in a PerkinElmer 2480 WIZARD2γ counter, and the percent injected dose (% ID) and % ID/g of each organ or tissue were calculated.
compound,measurement,setting,value
COc1cccc(OC)c1-c1cc(C(=O)NC2(C(=O)O)C3CC4CC(C3)CC2C4)nn1-c1ccc(OCCCN(C)CCCN(C)C(=O)CN2CCN(CC(=O)[O-])CCN(CC(=O)[O-])CCN(CC(=O)[O-])CC2)cc1C(C)C.[177Lu+3] (centres unmarked) [^177Lu-I-7],tumor AUC over 72 hours compared to ^177Lu—C2,[1],significantly higher tumor AUC
same,% ID/g (1 h) Blood,"[1]; Blood, 1 h",9.79 ± 1.66 % ID/g
same,% ID/g (4 h) Blood,"[1]; Blood, 4 h",1.8 ± 0.62 % ID/g
same,% ID/g (24 h) Blood,"[1]; Blood, 24 h",0.07 ± 0.01 % ID/g
same,% ID/g (72 h) Blood,"[1]; Blood, 72 h",0.01 ± 0 % ID/g
same,% ID/g (1 h) Femur,"[1]; Femur, 1 h",1.65 ± 0.23 % ID/g
same,% ID/g (4 h) Femur,"[1]; Femur, 4 h",0.49 ± 0.25 % ID/g
same,% ID/g (24 h) Femur,"[1]; Femur, 24 h",0.12 ± 0.04 % ID/g
same,% ID/g (72 h) Femur,"[1]; Femur, 72 h",0.06 ± 0.03 % ID/g
same,% ID/g (1 h) Heart,"[1]; Heart, 1 h",3.47 ± 0.56 % ID/g
same,% ID/g (4 h) Heart,"[1]; Heart, 4 h",0.58 ± 0.32 % ID/g
same,% ID/g (24 h) Heart,"[1]; Heart, 24 h",0.29 ± 0.14 % ID/g
same,% ID/g (72 h) Heart,"[1]; Heart, 72 h",0.08 ± 0.01 % ID/g
same,% ID/g (1 h) Intestine,"[1]; Intestine, 1 h",2.53 ± 0.58 % ID/g
same,% ID/g (4 h) Intestine,"[1]; Intestine, 4 h",1.69 ± 0.45 % ID/g
same,% ID/g (24 h) Intestine,"[1]; Intestine, 24 h",0.62 ± 0.04 % ID/g
same,% ID/g (72 h) Intestine,"[1]; Intestine, 72 h",0.19 ± 0.07 % ID/g
same,% ID/g (1 h) Kidney,"[1]; Kidney, 1 h",2.85 ± 0.45 % ID/g
same,% ID/g (4 h) Kidney,"[1]; Kidney, 4 h",2.05 ± 0.48 % ID/g
same,% ID/g (24 h) Kidney,"[1]; Kidney, 24 h",1.2 ± 0.17 % ID/g
same,% ID/g (72 h) Kidney,"[1]; Kidney, 72 h",0.48 ± 0.12 % ID/g
same,% ID/g (1 h) Liver,"[1]; Liver, 1 h",3.93 ± 0.43 % ID/g
same,% ID/g (4 h) Liver,"[1]; Liver, 4 h",1.88 ± 1.00 % ID/g
same,% ID/g (24 h) Liver,"[1]; Liver, 24 h",0.84 ± 0.09 % ID/g
same,% ID/g (72 h) Liver,"[1]; Liver, 72 h",0.23 ± 0.01 % ID/g
same,% ID/g (1 h) Lung,"[1]; Lung, 1 h",3.12 ± 1.25 % ID/g
same,% ID/g (4 h) Lung,"[1]; Lung, 4 h",1.1 ± 0.49 % ID/g
same,% ID/g (24 h) Lung,"[1]; Lung, 24 h",0.43 ± 0.14 % ID/g
same,% ID/g (72 h) Lung,"[1]; Lung, 72 h",0.13 ± 0.1 % ID/g
same,% ID/g (1 h) Muscle,"[1]; Muscle, 1 h",1.1 ± 0.3 % ID/g
same,% ID/g (4 h) Muscle,"[1]; Muscle, 4 h",0.27 ± 0.2 % ID/g
same,% ID/g (24 h) Muscle,"[1]; Muscle, 24 h",0.34 ± 0.3 % ID/g
same,% ID/g (72 h) Muscle,"[1]; Muscle, 72 h",0.011 ± 0.01 % ID/g
same,% ID/g (1 h) Pancreas,"[1]; Pancreas, 1 h",0.67 ± 0.28 % ID/g
same,% ID/g (4 h) Pancreas,"[1]; Pancreas, 4 h",0.24 ± 0.22 % ID/g
same,% ID/g (24 h) Pancreas,"[1]; Pancreas, 24 h",0.29 ± 0.21 % ID/g
same,% ID/g (72 h) Pancreas,"[1]; Pancreas, 72 h",0.02 ± 0.01 % ID/g
same,% ID/g (1 h) Spleen,"[1]; Spleen, 1 h",0.63 ± 0.19 % ID/g
same,% ID/g (4 h) Spleen,"[1]; Spleen, 4 h",0.58 ± 0.15 % ID/g
same,% ID/g (24 h) Spleen,"[1]; Spleen, 24 h",0.23 ± 0.11 % ID/g
same,% ID/g (72 h) Spleen,"[1]; Spleen, 72 h",0.06 ± 0.01 % ID/g
same,% ID/g (1 h) Stomach,"[1]; Stomach, 1 h",1.01 ± 0.82 % ID/g
same,% ID/g (4 h) Stomach,"[1]; Stomach, 4 h",0.58 ± 0.59 % ID/g
same,% ID/g (24 h) Stomach,"[1]; Stomach, 24 h",0.21 ± 0.08 % ID/g
same,% ID/g (72 h) Stomach,"[1]; Stomach, 72 h",0.04 ± 0.01 % ID/g
same,% ID/g (1 h) Tumor,"[1]; Tumor, 1 h",15.27 ± 8.72 % ID/g
same,% ID/g (4 h) Tumor,"[1]; Tumor, 4 h",19.97 ± 10.42 % ID/g
same,% ID/g (24 h) Tumor,"[1]; Tumor, 24 h",22.83 ± 1.14 % ID/g
same,% ID/g (72 h) Tumor,"[1]; Tumor, 72 h",18.07 ± 0.98 % ID/g
same,ratio of tumor AUC verse normal organ AUC,[1]; compared to ^177Lu—C2,significantly improved
same,% ID/g (1 h) Blood,"[2]; Blood, 1 h",16.51 ± 0.56 % ID/g
same,% ID/g (4 h) Blood,"[2]; Blood, 4 h",2.85 ± 1.23 % ID/g
same,% ID/g (24 h) Blood,"[2]; Blood, 24 h",0.06 ± 0.02 % ID/g
same,% ID/g (72 h) Blood,"[2]; Blood, 72 h",0.03 ± 0 % ID/g
same,% ID/g (120 h) Blood,"[2]; Blood, 120 h",0.01 ± 0 % ID/g
same,% ID/g (1 h) Femur,"[2]; Femur, 1 h",1.95 ± 1.15 % ID/g
